Source: US12439925B2, “Anti-pathogenic activity of a bifunctional peptidoglycan/chitin hydrolase” (Universiteit Antwerpen, priority 2018, dated 2025)
Entries after “also recorded” stand apart in the source; their conditions may differ. Like-named read-outs stand apart in the source and are kept apart here.

Legend:
[1] = tested on: C. albicans; format: cell-based, Candida albicans; conditions: for effect of acids on hyphal formation in C. albicans: compared with lactic acid
Description: (§1) Candida (albicans, dubliensis, and tropicalis) hyphae were induced by incubating 10^6 CFU/ml cells with 10% FCS, for 3 h at 37° C. in the wells of a 24-well plate, in a total volume of 500 μl per repetition and 4 biological repetitions per condition. To investigate the effect of lactobacilli 10^8 CFU/ml L. rhamnosus strains were added to the wells and co-incubated. To investigate the effect of Msp1, 5 μg/ml or 10 μg/ml of purified Msp1 from L. rhamnosus GG or L. rhamnosus GR-1 was added to the wells and co-incubated. To investigate the effect of acids, 100 μl of a 1% lactic acid or 1% butyric acid was added to the wells and co-incubated. After (co-) incubation for 3 h, at least 100 yeast cells and/or hyphae were counted in each well (4 per condition) and the ratio of hyphae to yeast cells was calculated.

[2] = tested on: C. albicans biofilms; experiment: Inhibition of C. albicans biofilm formation (XTT, absorbance 492 nm); format: cell-based, Candida albicans; conditions: 24 h
Description: The inhibiting effects on C. albicans biofilms were assessed. Briefly, C. albicans was grown overnight in YPD medium and suspended to 10^6 CFU/ml and added to the wells of a 96 well plate (80 μl/well), together with the samples (supernatant, lactic acid, Msp1) or controls (MRS or H20). After incubation for 24 h at 37° C., the biofilms were washed twice and then 2,3-bis (2-methoxy-4- nitro-5-sulfophenyl)-2H-tetrazolium-5-carboxanilide (90 μl, 1 mg/ml) (Sigma Aldrich) and phenazine methosulphate (10 μl, 0.2 mg/ml) (Sigma Aldrich) were added to the wells. After a second incubation (37° C., 30 minutes, in the dark), the absorbance at 492 nm was measured using a Synergy™ HTX multi-mode reader (Biotek, Drogenbos, Belgium).

[3] = Chitinase activity based on breakdown of chitin-azure; format: biochemical; conditions: compared with commercial chitinase from Streptomyces griseus; sodium acetate buffer control
Description: First, the chitinase activity of Msp1 was investigated based on breakdown of chitin-azure (Sigma), as described previously. Further confirmation was based on inhibition of chitinase activity by 2.5 mM Bisdionine C (Sigma), as described previously.

[4] = tested on: C. dubliensis; experiment: Inhibition of FCS-induced hyphal formation in C. dubliensis; format: cell-based, Candida dubliensis; conditions: different concentrations of Msp1
Description: as §1

[5] = tested on: C. tropicalis; experiment: Inhibition of FCS-induced hyphal formation in C. tropicalis; format: cell-based, Candida tropicalis; conditions: different concentrations of Msp1
Description: as §1

Molecule: Cl [hydrochloric acid]
- effect of acids on hyphal formation in C. albicans [1]: inhibited hyphae formation significantly

Molecule: Cn1cnc2c1c(=O)n(CCCn1c(=O)c3c(ncn3C)n(C)c1=O)c(=O)n2C [Bisdionine C]
- rescue of C. albicans hyphal morphogenesis from Msp1 inhibition ([1]; 2.5 mM Bisdionine C in the presence of Msp1): partially reversed; also recorded: can prevent hyphal inhibition partially

Molecule: CC(O)C(=O)O (centres unmarked) [Lactic acid, lactic acid]
- anti-biofilm activity on C. albicans ([2]; lactic acid 0.4%): showed anti-biofilm activity
- reduction of hyphal morphogenesis ([1]; 0.5-2% lactic acid, D- and L-lactic acid 1:1): reduced hyphal morphogenesis
- reduction of hyphal morphogenesis ([1]; 1% lactic acid (D- and L-lactic acid 1:1)): approximately 50%

Molecule: CCCC(=O)O [Butyric acid, butyric acid]
- effect of acids on hyphal formation in C. albicans [1]: comparable effects

B1: Msp1: bifunctional peptidoglycan/chitin hydrolase, major secreted protein 1, purified from L. rhamnosus GG supernatant (protein)
chain: MVDSKKVLSVTAGFVGAAGLAALATGANTVSASTGTVSYKSGATTVWNSPSWHQVKRYVTFGDTVQLLGKTVDQNGATWYKVGDNQWIPELYLNVAGKTATVETPSSAASQTAVSQAPASQAPTSQAPATQTPAAPQTDTQTANTQLYVKNIGSAVTVWTTPAYTHATGQYLEGSQTLTAVAQQQANGETWYRLANGGYVPARFVSTTPVAVTPQPAAPQSNEASVASTNTNAANDSAAASSAAASQAAASSAAASTAAANAAVASANATASQAAASEAAASQAAASQAAASQAAASQAAASQAAASQAAASQAAASQAAASQAAASQAAANAAQQAPANQANVTTTQVNANQAQQQTATATPAVNTSNQTAAVSASRQAKIQAVIAIAEQQVGKPYVWGGKGPNSFDCSGLMYYAFLNGAGVNIGGWTVPQESSGTQVSLSALQPGDLLFWGSHGSTYHVALYIGGGTMIQAPQPGENVKYTALAYFMPDFAVRPSL
modifications: Msp1 protein
notes: bifunctional peptidoglycan/chitin hydrolase, major secreted protein 1, purified from L. rhamnosus GG supernatant
- breakdown of chitin (chitin-azure) [3]: able to break down chitin, to the same extent as a commercially available chitinase; also recorded: can break down chitin derivative, chitin-azure
- effect on FCS-induced hyphal formation in C. dubliensis [4]: concentration-dependent effect
- anti-biofilm activity on C. albicans ([2]; Msp1 10 μg/mL): showed anti-biofilm activity
- effect on FCS-induced hyphal formation in C. tropicalis [5]: concentration-dependent effect
- reduction of hyphal morphogenesis ([1]; concentrations as low as 5 μg/mL): more than 50%
